# Where two headings read alike, the source gives them in different places.
# How the values were obtained:
# [1] = test system: mice with acute hepatitis/hepatic failure caused by LPS/D-GalN; settings: through a TLR4 signaling pathway; International Immunopharmacology, 2018, 61:266-276; cited from earlier work
# [2] = test system: mice with LPS/D-GalN-induced acute hepatic failure; settings: for Aspartate transferase (AST) / Alanine transferase (ALT): serum, 6 hours after modeling
# Protocol: (§1) The mice of the blank group and the model group were given the equivalent dose of normal saline by gavage for three consecutive days before the establishment of the model. […] Upon the third day of gavage, the mice of the blank group were given the equivalent dose of normal saline by intraperitoneal injection, and the mice of the model group and the groups with low, medium and high doses were given the LPS and the D-GalN by intraperitoneal injection. After 6 hours of modeling, blood and liver tissues were taken. Whole blood was centrifuged (4000 rmp×10 min), and then the supernatant was taken. The liver tissue was washed with normal saline, one-fourth of the large liver lobe was stored in a formalin solution, and the rest of the liver was stored in a refrigerator of −80° C.
# Plasma was taken, and determined with alanine transaminase (GPT) and aspartate transferase (GOT) kits. The experiment followed the instructions of the kits available from Nanjing Jiancheng Bioengineering Institute.
# (§2) All experimental data were analyzed by a Graphpad Prism 7.0 software. Statistical analysis between the two groups was conducted by a t test. Variance analysis was conducted by Ordinary one-way ANOVA. A Multiple Comparison method was used for conducting pairwise comparison among multiple groups. When the P value was <0.05, it was considered that there was statistical difference among the data of each group.
# [3] = test system: mice with LPS/D-GalN-induced acute hepatic failure; settings: for Catalase (CAT) / Glutathione (GSH) / Malondialdehyde (MDA) / Superoxide dismutase (SOD): liver tissue homogenate
# Protocol: as §1
# The liver tissue homogenate was detected with glutathione (GSH), superoxide dismutase (SOD), malondialdehyde (MDA) and catalase (CAT) kits. The experiment followed the instructions of kits available from Nanjing Jiancheng Bioengineering Institute.
# as §2
# [4] = test system: mice with LPS/D-GalN-induced acute hepatic failure
# Protocol: as §1
# The in vitro liver tissue was spread on a white paperboard, observed for the appearance of the liver tissue, and photographed.
# [5] = test system: mice with LPS/D-GalN-induced acute hepatic failure; remark: listed apart in the source
# Protocol: as §1
# The liver tissue was soaked in a 10% formalin solution, washed under running water, dehydrated with ethanol solutions of low to high concentrations, xylene solution, embedded with paraffin, sectioned, stained with H&E, and observed under a microscope for the pathological morphology of the liver tissue.
# [6] = test system: mice with LPS/D-GalN-induced acute hepatic failure; settings: treatment group administrated with the AFG
# Protocol: as §1
# [7] = group with the high dose of the AFG, P<0.01
# [8] = AFG 25 mg/kg by gavage for 3 days before LPS/D-GalN
# [9] = AFG 50 mg/kg by gavage for 3 days before LPS/D-GalN
# [10] = AFG 100 mg/kg by gavage for 3 days before LPS/D-GalN
# [11] = groups with medium and high doses of the AFG, P<0.05
smiles,measurement,setting,value
CC(C)=CCC[C@](C)(O[C@@H]1O[C@H](CO)[C@@H](O)[C@H](O)[C@H]1O)[C@H]1CC[C@]2(C)[C@@H]1[C@H](O)C[C@@H]1[C@@]3(C)CC[C@H](O)C(C)(C)[C@@H]3[C@@H](O[C@@H]3O[C@H](CO)[C@@H](O)[C@H](O)[C@H]3O)C[C@]12C [ginsenoside Rg1],protective role on mice with acute hepatitis/hepatic failure caused by LPS/D-GalN,[1],plays a protective role
"N=C(N)NCCC[C@H](NCC(=O)[C@@H](O)[C@H](O[C@H]1O[C@H](CO)[C@@H](O)[C@H](O)[C@H]1O)[C@H](O)CO)C(=O)O [AFG, argininyl fructosy glucose]",improvement of acute hepatic failure caused by the combination of LPS and D-GalN,"[2]; AFG in the range from 50 mg/kg to 100 mg/kg, overall conclusion",can significantly improve the acute hepatic failure
same,level of ALT in the serum compared with the model group,[2]; [7],significantly decreased
same,level of AST in the serum compared with the model group,[2]; [7],significantly decreased
same,Aspartate transferase (AST),[2]; AFG 25 mg/kg by gavage for 3 days before LPS 40 μg/kg + D-GalN 700 mg/kg i.p.,260.52 ± 5.58
same,Alanine transferase (ALT),[2]; [8],187.45 ± 3.48
same,Alanine transferase (ALT),[2]; [9],116.13 ± 3.37
same,Aspartate transferase (AST),[2]; [9],146.43 ± 0.93
same,Alanine transferase (ALT),[2]; [10],71.90 ± 5.97
same,Aspartate transferase (AST),[2]; [10],80.48 ± 5.09
same,level of CAT compared with the model group,[3]; [11],increased significantly
same,level of MDA compared with the model group,[3]; [11],increased significantly
same,level of SOD compared with the model group,[3]; [11],increased significantly
same,Catalase (CAT),[3]; [8],34.01 ± 2.75
same,Glutathione (GSH),[3]; [8],51.91 ± 3.29
same,Malondialdehyde (MDA),[3]; [8],133.37 ± 5.38
same,Superoxide dismutase (SOD),[3]; [8],11.48 ± 1.77
same,Catalase (CAT),[3]; [9],51.66 ± 6.19
same,Glutathione (GSH),[3]; [9],67.94 ± 3.58
same,Malondialdehyde (MDA),[3]; [9],104.00 ± 3.13
same,Superoxide dismutase (SOD),[3]; [9],20.98 ± 3.72
same,Catalase (CAT),[3]; [10],61.44 ± 8.96
same,Glutathione (GSH),[3]; [10],136.00 ± 6.90
same,Malondialdehyde (MDA),[3]; [10],94.44 ± 6.87
same,Superoxide dismutase (SOD),[3]; [10],26.54 ± 2.93
same,"appearance of the liver, protection effect",[4]; group protected with the high dose,the protection effect was obvious
same,appearance of the liver,[4]; with the increase of the protection dose,gradually tended to be of a normal state
same,H&E stained liver sections compared with the model group,[5]; group with the high dose of the AFG,the cells had relatively complete structures
same,H&E stained liver sections compared with the model group,[5]; group with the medium dose of the AFG,cellular necrosis was significantly improved
same,number of apoptotic cells (TUNEL) compared with the model group,[6],significantly reduced

# From patent US11160820B2 (Dalian Minzu University, priority 2019, dated 2021)
